28 compounds from PubChem BioAssay AID330 (DTP/NCI, 2004) can be followed below.

The assay relates to P388 leukemia ip, CD2F1 mice, survival T/C. Put plainly: NCI In Vivo Anticancer Drug Screen. Data for tumor model P388 Leukemia (intraperitoneal) in CD2F1 (CDF1) mice. To be noted: endpoint: median survival time, higher = longer survival. The procedure, abridged: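 Mice carrying the transplanted tumor received test compound or vehicle. Survival was recorded in each group, and the value is the treated-group measurement divided by that of the vehicle-treated control group.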

Setting [1] is: dose: 100.0 mg/kg/injection, schedule: Q04DX002 (ip), vehicle: saline with Tween-80.
[2] abbreviates: dose: 200.0 mg/kg/injection, schedule: Q04DX002 (ip), vehicle: saline with Tween-80.
[3] abbreviates: dose: 400.0 mg/kg/injection, schedule: Q04DX002 (ip), vehicle: saline with Tween-80.
Where [4] appears, read: dose: 50.0 mg/kg/injection, schedule: Q01DX009 (ip), vehicle: Klucel (hydroxypropylcellulose) (HPC).
Setting [5] is: dose: 100.0 mg/kg/injection, schedule: Q01DX009 (ip), vehicle: Klucel (hydroxypropylcellulose) (HPC).
[6] abbreviates: dose: 200.0 mg/kg/injection, schedule: Q01DX009 (ip), vehicle: Klucel (hydroxypropylcellulose) (HPC).
Where [7] appears, read: dose: 25.0 mg/kg/injection, schedule: Q01DX005 (ip), vehicle: saline with Tween-80.
Where [8] appears, read: dose: 50.0 mg/kg/injection, schedule: Q01DX005 (ip), vehicle: saline with Tween-80.
Where [9] appears, read: dose: 50.0 mg/kg/injection, schedule: Q01DX009 (ip), vehicle: saline.
[10] abbreviates: dose: 100.0 mg/kg/injection, schedule: Q01DX009 (ip), vehicle: saline.
Where [11] appears, read: dose: 200.0 mg/kg/injection, schedule: Q01DX009 (ip), vehicle: saline.
The mark [12] stands for this setting: dose: 100.0 mg/kg/injection, schedule: Q01DX005 (ip), vehicle: saline with Tween-80.
[13] abbreviates: dose: 60.0 mg/kg/injection, schedule: Q01DX005 (ip), vehicle: Klucel (hydroxypropylcellulose) (HPC).
Where [14] appears, read: dose: 120.0 mg/kg/injection, schedule: Q01DX005 (ip), vehicle: Klucel (hydroxypropylcellulose) (HPC).
Setting [15] is: dose: 50.0 mg/kg/injection, schedule: Q01DX005 (ip), vehicle: saline.
[16] abbreviates: dose: 100.0 mg/kg/injection, schedule: Q01DX005 (ip), vehicle: saline.
[17] abbreviates: dose: 200.0 mg/kg/injection, schedule: Q01DX005 (ip), vehicle: saline.
Where [18] appears, read: dose: 200.0 mg/kg/injection, schedule: Q01DX005 (ip), vehicle: saline with Tween-80.
[19] abbreviates: dose: 50.0 mg/kg/injection, schedule: Q01DX005 (ip), vehicle: Klucel (hydroxypropylcellulose) (HPC).
[20] abbreviates: dose: 100.0 mg/kg/injection, schedule: Q01DX005 (ip), vehicle: Klucel (hydroxypropylcellulose) (HPC).
The mark [21] stands for this setting: dose: 200.0 mg/kg/injection, schedule: Q01DX005 (ip), vehicle: Klucel (hydroxypropylcellulose) (HPC).

The structures appear in SMILES notation. Values joined by “and” are separate entries in the source; they are usually repeats but may differ in a detail not shown here. Equal values may be shown once. Inconclusive results and toxic doses are left out.

Take `CS(=O)(=O)N1C=Cc2ccccc2C=C1`: the T/C reads like this: under setting [1], 99 % of control; under setting [2], 90 % of control; under setting [3], 99 % of control.
Consider `CC1c2ccccc2OS(=O)N1C` (stereo unspecified), for which the T/C by setting is: under setting [4], 104 % of control; under setting [5], 110 % of control; under setting [6], 111 % of control.
As for `CC1CCCC(CC2CCCC[N-]2)[N-]1.CC1CCCC(CC2CCCC[N-]2)[N-]1.[Ni+2].[O-][Cl+3]([O-])([O-])O` (stereo unspecified), the T/C is, setting by setting: (dose: 25.0 mg/kg/injection, schedule: Q01DX001 (ip), vehicle: saline) 95 % of control; (dose: 50.0 mg/kg/injection, schedule: Q01DX001 (ip), vehicle: saline) 94 % of control; (dose: 100.0 mg/kg/injection, schedule: Q01DX001 (ip), vehicle: saline) 108 % of control and 95 % of control.
For the compound `CCC/C=C(/C=N/Nc1ccc([N+](=O)[O-])cc1[N+](=O)[O-])CC`, the T/C was 97 % of control (dose: 12.5 mg/kg/injection, schedule: Q01DX005 (ip), vehicle: saline with Tween-80); 109 % of control under setting [7]; 91 % of control and 95 % of control under setting [8].
`CC(=O)NC(Cc1ccccc1F)C(=O)O` (stereo unspecified): the T/C by setting is: under setting [9], 94 % of control; under setting [10], 94 % of control; under setting [11], 97 % of control.
Consider `CCOC(=O)C1=C(C)NC(C)=C(C(=O)OCC)C1C`, for which the T/C under setting [10] is 102 % of control and the T/C under setting [11] was 89 % of control.
Take `c1cnn(P2(n3cccn3)=NP(n3cccn3)(n3cccn3)=NP(n3cccn3)(n3cccn3)=NP(n3cccn3)(n3cccn3)=NP(n3cccn3)(n3cccn3)=NP(n3cccn3)(n3cccn3)=N2)c1`: the T/C reads like this: (dose: 100.0 mg/kg/injection, schedule: Q01DX001 (ip), vehicle: saline with Tween-80) 100 % of control; (dose: 200.0 mg/kg/injection, schedule: Q01DX001 (ip), vehicle: saline with Tween-80) 100 % of control; (dose: 400.0 mg/kg/injection, schedule: Q01DX001 (ip), vehicle: saline with Tween-80) 98 % of control.
`Nn1nnc2cc3c(cc21)nnn3N`: the T/C runs as follows: under setting [1], 109 % of control; under setting [2], 98 % of control; under setting [3], 95 % of control.
On to `Cc1cc(=O)n2c(n1)sc1cc3ccccc3cc12`, for which the T/C (dose: 100.0 mg/kg/injection, schedule: Q04DX002 (ip), vehicle: Klucel (hydroxypropylcellulose) (HPC)) was 98 % of control; the T/C (dose: 200.0 mg/kg/injection, schedule: Q04DX002 (ip), vehicle: Klucel (hydroxypropylcellulose) (HPC)) was 100 % of control; the T/C (dose: 400.0 mg/kg/injection, schedule: Q04DX002 (ip), vehicle: Klucel (hydroxypropylcellulose) (HPC)) is 99 % of control.
Turning to `CCOC(=O)C(=O)c1ccc(N(C)C)cc1`, the T/C was 107 % of control under setting [5]; 100 % of control under setting [6]; 97 % of control (dose: 400.0 mg/kg/injection, schedule: Q01DX009 (ip), vehicle: Klucel (hydroxypropylcellulose) (HPC)).
On to `CCOc1c(N=Nc2ccc(OC)cc2)c(C)nn1C(N)=S`, for which the T/C is 101 % of control (dose: 15.0 mg/kg/injection, schedule: Q01DX005 (ip), vehicle: Klucel + Tween-80); 100 % of control (dose: 30.0 mg/kg/injection, schedule: Q01DX005 (ip), vehicle: Klucel + Tween-80); 98 % of control and 123 % of control (dose: 60.0 mg/kg/injection, schedule: Q01DX005 (ip), vehicle: Klucel + Tween-80); 110 % of control and 91 % of control (dose: 120.0 mg/kg/injection, schedule: Q01DX005 (ip), vehicle: Klucel + Tween-80); 100 % of control (dose: 240.0 mg/kg/injection, schedule: Q01DX005 (ip), vehicle: Klucel + Tween-80).
Consider `[F][Sn]([F])([c]1ccccc1)[c]1ccccc1`, for which, under “dose: 1.56 mg/kg/injection, schedule: Q01DX009 (ip), vehicle: Klucel (hydroxypropylcellulose) (HPC)”, the T/C was 196 % of control.
`O=C1OC(c2ccccc2)(c2ccccc2)CC1C=C(c1ccccc1)c1ccccc1` (stereo unspecified): the T/C is 92 % of control under setting [7]; 89 % of control and 94 % of control under setting [8]; 89 % of control under setting [12].
`Cc1cc2c(cc1C)NC1=C(N2)OC(c2ccccc2C)C1=O` (stereo unspecified): the T/C is 96 % of control under setting [13] and 106 % of control under setting [14].
Turning to `O=C(/C=C/c1ccc(Cl)cc1Cl)c1ccc(Cl)cc1`, the T/C runs as follows: (dose: 100.0 mg/kg/injection, schedule: Q04DX003 (ip), vehicle: saline with Tween-80) 100 % of control; (dose: 200.0 mg/kg/injection, schedule: Q04DX003 (ip), vehicle: saline with Tween-80) 95 % of control; (dose: 400.0 mg/kg/injection, schedule: Q04DX003 (ip), vehicle: saline with Tween-80) 90 % of control.
Regarding `CSCCC(N)[P+](=O)O` (stereo unspecified), the T/C was 99 % of control under setting [15], 95 % of control under setting [16] and 99 % of control under setting [17].
For `CN1CCN(C)B1N=S(C)(C)=O`, the T/C reads like this: (dose: 50.0 mg/kg/injection, schedule: Q01DX005 (ip), vehicle: olive oil, sesame oil, peanut oil) 111 % of control; (dose: 100.0 mg/kg/injection, schedule: Q01DX005 (ip), vehicle: olive oil, sesame oil, peanut oil) 114 % of control.
Regarding `Cn1cc2c(c1-c1ccccc1)[n+](=O)c1ccccc1n2[O-]`, the T/C by setting is: under setting [8], 94 % of control; under setting [12], 91 % of control; under setting [18], 95 % of control.
Regarding `O=C(CSc1nnc(-c2ccc(Cl)cc2)s1)Nc1nccs1`, the T/C is 89 % of control (dose: 60.0 mg/kg/injection, schedule: Q01DX005 (ip), vehicle: saline with Tween-80); 89 % of control (dose: 120.0 mg/kg/injection, schedule: Q01DX005 (ip), vehicle: saline with Tween-80); 89 % of control (dose: 240.0 mg/kg/injection, schedule: Q01DX005 (ip), vehicle: saline with Tween-80).
Consider `CN(CN(C)N=Nc1ccc(Br)cc1)CN(C)N=Nc1ccc(Br)cc1`, for which the T/C is, setting by setting: under setting [13], 100 % of control; under setting [14], 92 % of control.
In the case of `N#Cc1ccc([N+](=O)[O-])o1`, the T/C is 100 % of control (dose: 12.5 mg/kg/injection, schedule: Q01DX009 (ip), vehicle: saline with Tween-80); 90 % of control (dose: 25.0 mg/kg/injection, schedule: Q01DX009 (ip), vehicle: saline with Tween-80); 95 % of control (dose: 50.0 mg/kg/injection, schedule: Q01DX009 (ip), vehicle: saline with Tween-80).
Take `C=CC(=O)OCC(C)(C)C`: the T/C is, setting by setting: under setting [15], 99 % of control; under setting [16], 98 % of control; under setting [17], 116 % of control.
Regarding `COc1cc2c(cc1OC)C1CCN3C(=O)CCC3[N+]1(C)CC2` (stereo unspecified), the T/C is, setting by setting: (dose: 25.0 mg/kg/injection, schedule: Q01DX009 (ip), vehicle: saline sonified) 90 % of control; (dose: 50.0 mg/kg/injection, schedule: Q01DX009 (ip), vehicle: saline sonified) 90 % of control; (dose: 100.0 mg/kg/injection, schedule: Q01DX009 (ip), vehicle: saline sonified) 90 % of control.
In the case of `O=C1c2ccccc2C(=O)c2cnccc21`, the T/C was 109 % of control under setting [19], 106 % of control under setting [20] and 106 % of control under setting [21].
Take `S=c1nc(-c2ccccn2)c(-c2ccccn2)n[nH]1`: the T/C runs as follows: under setting [8], 116 % of control and 117 % of control; under setting [12], 121 % of control; under setting [18], 119 % of control and 120 % of control; (dose: 400.0 mg/kg/injection, schedule: Q01DX005 (ip), vehicle: saline with Tween-80) 120 % of control.
`Oc1ccc(C2(c3ccc(O)cc3)C3CC4CC(C3)CC2C4)cc1`: the T/C was 104 % of control under setting [4], 103 % of control under setting [5] and 100 % of control under setting [6].
Turning to `Cc1ccc(S(=O)(=O)NCCSSCCNS(=O)(=O)c2ccc(C)cc2)cc1`, the T/C was 103 % of control under setting [19], 106 % of control under setting [20] and 103 % of control under setting [21].
For the compound `[Cl][Cr]([Cl])[Cl].[NH-]CC[N-]CC[NH-]`, the T/C reads like this: under setting [9], 97 % of control; under setting [10], 109 % of control; under setting [11], 115 % of control.
